Laboratory results published in patent publication US9045491B2, “Thienyl [3,2-D] pyrimidin-4-one compounds, preparation method, pharmaceutical compositions and use thereof” (SHANGHAI INSTITUTE OF MATERIA MEDICA, CHINESE ACADEMY OF …, priority 2011, dated 2015).
Several values for one entry are separate records, joined by “and”; a condition that tells them apart may be missing. Identical values can stand only once. Entries after “also recorded” stand apart in the source; their conditions may differ.

Experiment: Pharmacokinetics of DC291407 and metabolites in rats (LC-MS/MS)
Format: in vivo, Sprague-Dawley (SD) rats
Method: The concentration of metabolite M1 (4071001), metabolite M2 (407002) or metabolite M3 (407003) in plasma was determined by LC-MS/MS method after DC291407 was administrated to the rats through gavage and intravenous injection.
The LC/MS/MS used is triple quadruple LC/MS 6460 from Agilent.
Six healthy male Sprague-Dawley (SD) rats with the weight of 180-220 g were randomly divided into 2 groups. The rats in each group were administrated with the tested compound by gavage or intravenous injection, respectively.
The compound was dissolved in 6.7% DMSO/6.7% Tween/86.6% normal saline.
The rats fasted for 12 h and can drink water ad libitum. 2 h after dosing, the rats were provided with food all together. The time point for collecting blood samples and the sample processing are listed as follows.
Intragastric administration: 0.25, 0.5, 1.0, 2.0, 3.0, 4.0, 6.0, 8.0 and 24 h after administration;
Intravenous administration: 5 min, 0.25, 0.5, 1.0, 2.0, 4.0, 6.0, 8.0 and 24 h after administration. At above time point, 0.3 ml venous blood was taken from retrobulbar venous plexus of the rat and loaded into heparinization tube. After centrifuged at 11000 rpm for 5 min, the plasma was separated and frozen at −20° C. in a refrigerator.

[1] = gavage 20 mg/kg DC291407, average of 3 animals
[2] = gavage 20 mg/kg DC291407, individual animals, 20 mg/kg
[3] = gavage 20 mg/kg DC291407, time 0 h, individual animals, BLQ = below lower quantification
[4] = gavage 20 mg/kg DC291407, time 0.25 h, individual animals, 20 mg/kg
[5] = gavage 20 mg/kg DC291407, time 0.5 h, individual animals, 20 mg/kg
[6] = intravenous injection 10 mg/kg DC291407, average of 3 animals

SMILES: COC(=O)c1cc2nc(N3CCCC(N)C3)n(Cc3ccccc3C#N)c(=O)c2s1 (centres unmarked) [DC291407]
- concentration of M2 in plasma samples collected within one hour after administration (gavage 20 mg/kg DC291407): below 20 ng/ml
- metabolite M3 in plasma (gavage 20 mg/kg DC291407): can not be detected
- prototype compound in plasma (gavage 20 mg/kg DC291407): can not be detected
- main component in plasma (gavage 20 mg/kg DC291407, 20 mg/kg): mainly contained hydrolysis-metabolite M1; also recorded: mainly contained hydrolysis-metabolite Ml
- AUC0-t of metabolite M1 [1]: 9860 ng·h/mL
- AUC0-∞ of metabolite M1 [1]: 9968 ng·h/mL
- Cmax of metabolite M1 [1]: 6039 ng/mL
- MRT of metabolite M1 [1]: 2.58 h
- Tmax of metabolite M1 [1]: 0.33 h
- t1/2 of metabolite M1 [1]: 5.63 h
- F, absolute bioavailability (gavage 20 mg/kg DC291407, dose-normalized, based on AUC of metabolite M1): 22.1%
- AUC0-t of metabolite M1 [2]: 8191 ng·h/mL and 5758 ng·h/mL and 15633 ng·h/mL
- AUC0-∞ of metabolite M1 [2]: 8292 ng·h/mL and 5907 ng·h/mL and 15706 ng·h/mL
- Cmax of metabolite M1 [2]: 4435 ng/mL and 3427 ng/mL and 10255 ng/mL
- MRT of metabolite M1 [2]: 2.86 h and 3.15 h and 1.74 h
- Tmax of metabolite M1 [2]: 0.50 h and 0.25 h
- t1/2 of metabolite M1 [2]: 5.37 h and 7.97 h and 3.55 h
- Plasma concentration of metabolite M1 [3]: BLQ
- Plasma concentration of metabolite M2 [3]: BLQ
- Plasma concentration of metabolite M1 (gavage 20 mg/kg DC291407, time 0.25 h, average of 3 animals): 5712 ng/mL
- Plasma concentration of metabolite M1 [4]: 3454 ng/mL and 3427 ng/mL and 10255 ng/mL
- Plasma concentration of metabolite M2 [4]: 3.87 ng/mL and 3.24 ng/mL and 16.3 ng/mL
- Plasma concentration of metabolite M1 (gavage 20 mg/kg DC291407, time 0.5 h, average of 3 animals): 5975 ng/mL
- Plasma concentration of metabolite M1 [5]: 4435 ng/mL and 3404 ng/mL and 10087 ng/mL
- Plasma concentration of metabolite M2 [5]: 4.79 ng/mL and 3.94 ng/mL and 16.9 ng/mL
- Plasma concentration of metabolite M1 (gavage 20 mg/kg DC291407, time 1.0 h, average of 3 animals): 3962 ng/mL
- Plasma concentration of metabolite M1 (gavage 20 mg/kg DC291407, time 1.0 h, individual animals, 20 mg/kg): 3326 ng/mL and 1771 ng/mL and 6789 ng/mL
- Plasma concentration of metabolite M2 (gavage 20 mg/kg DC291407, time 1.0 h, individual animals, BLQ = below lower quantification, 20 mg/kg): 3.88 ng/mL and BLQ and 10.7 ng/mL
- Plasma concentration of metabolite M1 (gavage 20 mg/kg DC291407, time 2.0 h, average of 3 animals): 1117 ng/mL
- Plasma concentration of metabolite M1 (gavage 20 mg/kg DC291407, time 2.0 h, individual animals, 20 mg/kg): 690 ng/mL and 1091 ng/mL and 1569 ng/mL
- Plasma concentration of metabolite M2 (gavage 20 mg/kg DC291407, time 2.0 h, individual animals, BLQ = below lower quantification): BLQ
- Plasma concentration of metabolite M1 (gavage 20 mg/kg DC291407, time 3.0 h, average of 3 animals): 549 ng/mL
- Plasma concentration of metabolite M1 (gavage 20 mg/kg DC291407, time 3.0 h, individual animals, 20 mg/kg): 476 ng/mL and 299 ng/mL and 872 ng/mL
- Plasma concentration of metabolite M2 (gavage 20 mg/kg DC291407, time 3.0 h, individual animals, BLQ = below lower quantification): BLQ
- Plasma concentration of metabolite M1 (gavage 20 mg/kg DC291407, time 4.0 h, average of 3 animals): 390 ng/mL
- Plasma concentration of metabolite M1 (gavage 20 mg/kg DC291407, time 4.0 h, individual animals, 20 mg/kg): 500 ng/mL and 105 ng/mL and 565 ng/mL
- Plasma concentration of metabolite M2 (gavage 20 mg/kg DC291407, time 4.0 h, individual animals, BLQ = below lower quantification): BLQ
- Plasma concentration of metabolite M1 (gavage 20 mg/kg DC291407, time 6.0 h, average of 3 animals): 123 ng/mL
- Plasma concentration of metabolite M1 (gavage 20 mg/kg DC291407, time 6.0 h, individual animals, 20 mg/kg): 138 ng/mL and 57.3 ng/mL and 173 ng/mL
- Plasma concentration of metabolite M2 (gavage 20 mg/kg DC291407, time 6.0 h, individual animals, BLQ = below lower quantification): BLQ
- Plasma concentration of metabolite M1 (gavage 20 mg/kg DC291407, time 8.0 h, average of 3 animals): 68.5 ng/mL
- Plasma concentration of metabolite M1 (gavage 20 mg/kg DC291407, time 8.0 h, individual animals, 20 mg/kg): 97.1 ng/mL and 58.9 ng/mL and 49.5 ng/mL
- Plasma concentration of metabolite M2 (gavage 20 mg/kg DC291407, time 8.0 h, individual animals, BLQ = below lower quantification): BLQ
- Plasma concentration of metabolite M1 (gavage 20 mg/kg DC291407, time 24 h, average of 3 animals): 13.4 ng/mL
- Plasma concentration of metabolite M1 (gavage 20 mg/kg DC291407, time 24 h, individual animals, 20 mg/kg): 13.0 ng/mL (2×) and 14.3 ng/mL
- Plasma concentration of metabolite M2 (gavage 20 mg/kg DC291407, time 24 h, individual animals, BLQ = below lower quantification): BLQ
- main component in plasma (intravenous 10 mg/kg DC291407): mainly contained hydrolysis-metabolite M1
- metabolite M2 in plasma (intravenous 10 mg/kg DC291407): relatively low concentration
- prototype compound in plasma (intravenous 10 mg/kg DC291407): relatively low concentration
- metabolite M3 in plasma (intravenous 10 mg/kg DC291407, 10 mg/kg): can not be detected; also recorded: no metabolite M3 can be detected
- AUC0-t of metabolite M1 [6]: 22274 ng·h/mL
- AUC0-t of prototype drug [6]: 36.0 ng·h/mL
- AUC0-∞ of metabolite M1 [6]: 22517 ng·h/mL
- AUC0-∞ of prototype drug [6]: 39.9 ng·h/mL
- CL of prototype drug [6]: 260 L/h/kg
- Cmax of metabolite M1 [6]: 45028 ng/mL
- MRT of metabolite M1 [6]: 1.13 h
- MRT of prototype drug [6]: 0.78 h
- Tmax of metabolite M1 [6]: 0.083 h
